Values quoted from earlier work as cited in patent publication US11167054B2, “Activated disinfectant hydrogen peroxide compositions” (LONZA, LLC, priority 2014, dated 2021).
Read-outs that look alike come from different tables or passages of the source.

Experiments:
[1] = tested on: Pseudomonas Aeruginosa
[2] = tested on: Staphylococcus Aureus
[3] = 6 wt. % hydrogen peroxide solution, 5 minutes contact time
[4] = 6000 ppm (0.6 wt. %) hydrogen peroxide solution, 5 minute contact time

OO [hydrogen peroxide]
Log reduction against Pseudomonas Aeruginosa [1, 3]: < 2 Log | Log reduction against Pseudomonas Aeruginosa [1, 4]: < 1 Log | Log reduction against Staphylococcus Aureus [2, 3]: ~3 Log | log reduction against Staphylococcus Aureus [2, 4]: ~1 log
